Experimental data taken from PMC5340791, “New approaches for the reliable in vitro assessment of binding affinity based on high-resolution real-time data acquisition of radioligand-receptor binding kinetics” (EJNMMI Research, 2017).

Columns and labels:
[1] = target: T1, human adenosine A3 receptor (CHO-K1-hA3R cells) (Homo sapiens, UniProt P0DMS8); assay: Competitive real-time cell-binding studies (LigandTracer), displacement of [125I]-AB-MECA; details: 0.7 nM [125I]-AB-MECA, ambient temperature, Cheng-Prusoff, mean ± SEM, three independent experiments
T1 construct: expressed in transfected cells
T1 sequence (P0DMS8 1-318): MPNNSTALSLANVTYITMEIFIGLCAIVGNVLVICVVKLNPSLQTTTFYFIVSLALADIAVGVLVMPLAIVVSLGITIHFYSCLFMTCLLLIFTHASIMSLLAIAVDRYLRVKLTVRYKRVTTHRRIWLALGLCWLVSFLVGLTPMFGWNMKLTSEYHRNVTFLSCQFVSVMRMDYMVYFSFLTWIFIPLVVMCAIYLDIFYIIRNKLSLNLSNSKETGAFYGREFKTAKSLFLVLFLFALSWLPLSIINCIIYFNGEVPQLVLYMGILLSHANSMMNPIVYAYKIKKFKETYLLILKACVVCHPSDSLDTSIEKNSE
Experimental: The measurements were made according to the assay protocol as previously described above. […] The experiments were initiated with a baseline measurement (10–15 min). […] Inhibition of the radioligand was performed by adding different concentration series (1–500 nM) of unlabelled compounds (A3R antagonists) each after visual binding equilibrium. At least four different concentrations of competitor, spanning three orders of magnitude adjusted appropriately for the IC50 of each compound, were used. Unspecific binding was determined in the presence of a high concentration (0.5–100 μM) of the non-labelled competitor substance. The observed association phase of the radioligand and the dissociation phase of each consecutive concentration of the competitor substance were monitored in real-time until visual binding equilibrium was reached. All non-labelled compounds were initially dissolved in DMSO and diluted with deionized water to the final concentration, where the amount of DMSO never exceeded 5%. Cytophysiological conditions and cell attachment were examined continuously during the whole course of the experiment with the perimeter trace of the LigandTracer® software (version 1.0.1).
Raw data from the LigandTracer® measurements were analysed in GraphPad Prism 6.0 (GraphPad Software, Inc., San Diego, CA). Experiments were conducted at least as a triplicate with different batches of radioligand and biological target material to avoid systematic bias and to assure statistical certainty. […] Transformed data was analysed using “one-phase association” curve fitting algorithm as outlined in the following equation:2 Y=Y0+Plateau−Y0*1−e^−k*x where “x” is a given time and “Y” corresponds to the amount of radioligand binding for a dedicated time point. “Y 0” is the initial value of “Y” at the beginning of radioligand incubation and “plateau” indicates the maximum amount of the bound radioligand after equilibrium. “k” is the rate constant expressed in reciprocal units of “x”.
Transformed data were analysed by using “dissociation—one-phase exponential decay” curve fit as follows:3 Y=Y0−NS*e^−k*x+NS where “x” is a given time and “Y” corresponds to the amount of bound radioligand for a dedicated time point. “Y 0” is the initial value of “Y” at the beginning of each dissociation phase and “NS” indicates the steady state of radioligand binding in the presence of dedicated cold competitor after infinite time. “k” is the rate constant expressed in reciprocal units of “x”.
Equilibrium binding data determined in Eqs. (2) and (3) served as input parameters for the calculation of the IC50 using “log(inhibitor) vs. response—variable slope (four parameters)” nonlinear regression algorithm as described below:4 Y=Bottom+Top−Bottom/1+10^logIC50−C*HillSlope where “C” is the logarithm of the competitor concentration and “Y” reflects the dedicated amount of bound radioligand at equilibrium obtained from Eq. (3). “Top” indicates the maximum amount of radioligand binding (without any competitor) whereas the corresponding value is derived from Eq. (2). “Bottom” expresses the amount of unspecific radioligand binding in presence of a very high concentration of competitor. The dedicated value is determined by Eq. (3) and corresponds to the “NS” value of the last inhibitor concentration. The “HillSlope” reflects the slope factor, which indicates the steepness of the resulting inhibition curve. […] The resulting IC50 was converted into the K i using Cheng-Prusoff Eq. (3).

[2] = HPLC-based measurement of the logarithm of the octanol-water partition coefficient (HPLClogD7.4); assay type: physicochemical; details: pH 7.4, HPLC-based assay; mean ± SEM of three independent experiments
Experimental: The logarithm of the octanol-water partition coefficient of the A3R antagonists were determined at pH 7.4 by high-performance liquid chromatography (HPLC)-based assay (HPLClogD^7.4) modified from Donovan and Pescatore. Briefly, a mixture of two internal standards (toluene and triphenylene) with known logD values and defined retention times (k’) have been used. A3R antagonists were dissolved in methanol and injected onto a short polymeric ODP-50 column (20 × 4.0 mm, 5 μm pore size, Supelco, Bellefonte, PA, USA). A linear gradient from 10% methanol/90% phosphate buffer (25 mM, pH 7.4) to 100% methanol within 9.4 min at a flow rate of 1.5 mL/min were applied. Measurement and detection of the three retention times of toluene, triphenylene and A3R antagonists were performed at 260 and 285 nm. Between consecutive HPLC runs, 5 min for re-equilibration of the HPLC column were allowed. The logD values of the dedicated compounds were determined using the known logD values of triphenylene and toluene and the retention time of triphenylene, toluene and the unknown compounds according to the following formula:1 logPUnknown=logPtol−logPtriph*tUnknown+ttol*logPtriph−ttriph*logPtol/ttol−ttriph where “log P Unknown” is the logD value of the test compound and “t Unknown” the corresponding measured retention time of the dedicated substance. The logD values for the internal standards are abbreviated as “log P tol” (toluene) and “log P triph” (triphenylene), respectively. Measured retention times are indicated as “t tol” for toluene and “t triph” for triphenylene.

human A3R [3] = target: human A3R; parameters: method as in PMID 11462807, PMID 8190112, PMID 8576921; details: traditional binding assays, membranes from human A3R-transfected HEK-293 cells; ref [30], [32], [33]; read-out: Ki Literature; cited from earlier work
human A3R [4] = details: traditional saturation binding assays, membranes from human A3R-transfected HEK-293 cells; ref [29]; read-out: K d (Reported affinity); cited from earlier work

Row | Ki [1] [nM] | chromatographic logD [2] | SMILES | Ki (human A3R [3]) [nM] | Kd (human A3R [4]) [nM]
1 | 8.05 ± 1.77 | 3.95 ± 0.38 | CCc1nc(-c2ccccc2)c(C(=O)OCCF)c(CC)c1C(=O)SCCF [(FE)^2@SUPPY, 2-fluoroethyl 4,6-diethyl-5-{[(2-fluoroethyl)sulfanyl]carbonyl}-2-phenylpyridine-3-carboxylate] | – | –
2 | 46.1 ± 6.66 | 3.66 ± 0.33 | CCc1nc(-c2ccccc2)c(C(=O)OC)c(CC)c1C(=O)SC [(Me)^2@SUPPY, methyl 4,6-diethyl-5-[(methylsulfanyl)carbonyl]-2-phenylpyridine-3-carboxylate] | – | –
3 | 114 ± 16.9 | 0.97 ± 0.37 | CCSC(=O)c1c(CC)nc(-c2ccccc2)c(C(=O)O)c1CC [DFE@SUPPY, 4,6-diethyl-5-[(ethylsulfanyl)carbonyl]-2-phenylpyridine-3-carboxylic acid] | – | –
4 | 8.51 ± 1.46 | 4.04 ± 0.36 | CCSC(=O)c1c(CC)nc(-c2ccccc2)c(C(=O)OCCF)c1CC [FE@SUPPY, 5-(2-fluoroethyl)2,4-diethyl-3-(ethylsulfanylcarbonyl)-6-phenylpyridine-5-carboxylate] | – | –
5 | 8.24 ± 2.35 | 4.05 ± 0.36 | CCOC(=O)c1c(-c2ccccc2)nc(CC)c(C(=O)SCCF)c1CC [FE@SUPPY:2, 5-ethyl 2,4-diethyl-3-((2-fluoroethyl)sulfanylcarbonyl)-6-phenylpyridine-5-carboxylate] | – | –
6 | 41.2 ± 3.91 | 3.83 ± 0.36 | CCc1nc(-c2ccccc2)c(C(=O)OC)c(CC)c1C(=O)SCCF [FEMe@SUPPY:2, methyl 4,6-diethyl-5-{[(2-fluoroethyl)sulfanyl]carbonyl}-2-phenylpyridine-3-carboxylate] | – | –
7 | – | 4.83 ± 0.01 | CCOC(=O)C1=C(C)NC(c2ccccc2)=C(C(=O)OCc2ccccc2)C1C#Cc1ccccc1 (centres unmarked) [MRS1191, 1,4-dihydro-2-methyl-6-phenyl-4-(phenylethynyl)-3,5-pyridinedicarboxylic acid, 3-ethyl 5-(phenylmethyl) ester, reference compound] | – | –
8 | 17.8 ± 2.88 | 4.85 ± 0.01 | CCCOC(=O)c1c(-c2ccccc2)nc(CC)c(C(=O)SCC)c1CCC [MRS1523, 2,3-ethyl-4,5-dipropyl-6-phenylpyridine-3-thiocarboxylate-5-carboxylate, reference compound] | 18.9 ± 4.1 | –
9 | – | – | CNC(=O)[C@H]1O[C@@H](n2cnc3c(NCc4ccc(N)c(I)c4)ncnc32)[C@H](O)[C@@H]1O [[^125I]-AB-MECA, [^125I]-4-aminobenzyl-5′-N-methylcarboxamideoadenosine] | – | 0.59 ± 0.02
